Source: patent US20150004137A1, “NOVEL FORMS OF PLANT DEFENSINS” (Balmoral Australia Pty Ltd, priority 2011, published 2015)
Entries after “also recorded” stand apart in the source; their conditions may differ. Where no end group is shown, it is not given here.

Experiments:
[1] = system: U937 cells; experiment: BODIPY-NaD1 binding to viable and permeabilised U937 cells (flow cytometry, 7AAD); assay type: cell-based, human; details: 10 μM, 37° C., 30 min
Source text: The percentage of cells in each population (boxed) is indicated.

[2] = system: U937 and PC3 cells; experiment: Subcellular localisation of BODIPY-NaD1 by CLSM; assay type: cell-based, human; details: PI present, 12 minutes
Protocol: FIG. 2B is a series of micrographs examining the subcellular localisation of BODIPY-NaD1 in U937 and PC3 cells. U937 cells immobilised onto 10% poly-L-lysine coverslips or PC3 cells cultured as adherent monolayers on coverslips, were treated with […] BODIPY-NaD1 in the presence of 1 μg/ml PI for 12 minutes and cells imaged by CLSM. Scale bars represent 10 μm.
Live imaging was performed on a Zeiss LSM-510 confocal microscope using a 40× oil immersion objective in a 37° C./5% CO2 atmosphere. Adherent cells were cultured on coverslips prior to imaging while non-adherent cells were immobilized onto 10% poly-L-lysine-coated coverslips. All cell types were prepared for imaging in RPMI medium containing 0.1% BSA and […] PI. […] In certain experiments, cells were either, stained with PKH67 (Sigma-Aldrich) or transfected with plasmid construct for free GFP or GFP-PH(PLCδ) using Lipofectamine™ 2000 Reagent (Invitrogen) as per manufacturer's instructions prior to imaging. Transmission electron microscopy (TEM) imaging was performed according to a previously described procedure (Adda et al. 2009).

[3] = system: U937 cells; experiment: PI uptake membrane permeabilisation assay (flow cytometry); assay type: cell-based, human; details: 30 minutes at 37° C.
Protocol: FIG. 5B is a graphical representation showing the effect of rNaD1, rNaD1(D2L4A), or rNaD1(D2L5) on the permeabilisation of U937 cells. Cells were incubated with 10 μM of each defensin for 30 minutes at 37° C. upon which 1 μg/ml PI propidium iodide (PI) was added. The number of cells that stained positively for PI was determined by flow cytometry.
Cells were incubated with 10 μM of each defensin for 30 minutes at 37° C. upon which 1 μg/ml PI propidium iodide (PI) was added. The number of cells that stained positively for PI was determined by flow cytometry.
Cells were incubated with 5 μM of each defensin for 30 minutes at 37° C. upon which […] PI propidium iodide (PI) was added. The number of cells that stained positively for PI was determined by flow cytometry.
Unless otherwise stated, cells are re-suspended at a cell concentration of 4×10^5 cells/mL in complete culture RPMI-1640 medium supplemented with 10% FBS, 100 μ/mL penicillin and 100 μg/mL streptomycin, and are added to either a V-bottom 96-well plate or microfuge tubes. Cells are kept at 37° C., unless otherwise stated, during protein addition (5 μL) at various concentrations or the set concentration of 10 μM. Typically, cells are mixed with the heterogeneous defensin of interest and are incubated at 37° C. for 30 min. In certain experiments, cells are also incubated at either 4° C. or 37° C. for 2-60 min prior to flow cytometry analysis. Cells are added to an equal volume of complete culture medium containing 2 μg/mL propidium iodide (PI, Annexin V-FITC Apoptosis Detection Kit, Invitrogen) and are analysed immediately by flow cytometry using a FACSCanto cell sorter (Becton Dickson, Fanklin Lakes, N.J.) and Cell Quest Pro Software (Becton Dickson). Typically, 5000-10000 events per sample are collected and the resultant data is analysed using FlowJo software (Tree Star, Ashland, Oreg.). Cells are gated appropriately based on forward scatter (FSC) and side scatter (SSC), with the viable cells is determined by their ability to exclude PI. […]

[4] = Cross-linking (BS3) study of lipid-mediated oligomerisation with PIP2; details: 0.5 mM PIP2, 30 min room temperature, SDS-PAGE, immunoblot
Protocol: (§1) Molecular weight markers are indicated.
(§2) Protein samples at 1 mg ml^−1 (2.5 μl) were incubated with 0.5 mM PIP2 or PA (2.5 μl) at room temperature for 30 min. […] Samples were reduced and denatured, and subjected to SDS-PAGE.

[5] = Cross-linking (BS3) study of lipid-mediated oligomerisation with PA; details: 0.5 mM PA, 30 min room temperature, SDS-PAGE, immunoblot
Protocol: as §1, §2

[6] = as described in PCT/AU2011/000760 and U.S. Ser. No. 13/166,960; cited from earlier work
[7] = system: tumour cells; details: as disclosed in PCT/AU2011/000760 and U.S. Ser. No. 13/166,960; cited from earlier work
[8] = Lipid binding assay on Echelon membrane lipid strips; details: anti-NaD1 antibody detection, densitometry
Source text: FIG. 5C is an immunoblot depicting the lipid binding profile of rNaD1, rNaD1(D2L4A), or rNaD1(D2L5). Echelon™ membrane lipid strips were probed with the defensins and binding detected with a rabbit anti-NaD1 antibody followed by a horseradish peroxidase (HRP) conjugated donkey anti-rabbit IgG antibody.
Data is the mean of three replicate experiments±SEM.
Echelon™ membrane lipid strips were probed with the defensins and binding was detected with a rabbit anti-NaD1 antibody followed by a horseradish peroxidase (HRP) conjugated donkey anti-rabbit IgG antibody.
Membrane Lipid Strips™, PIP Strips™ and Sphingo Strips™ (Echelon Biosciences, Salt Lake City, Utah) were incubated with PBS/3% BSA for 1-2 h at RT to block non-specific binding. […] Membrane-bound protein was detected by probing the membrane strips with a rabbit anti-NaD1 polyclonal antibody (diluted 1:2000 with PBS/1% BSA) for 1 h at 4° C., followed by a HRP-conjugated donkey anti-rabbit IgG antibody (diluted 1:2000 with PBS/1% BSA) for 1 h at 4° C. After each antibody incubation, the membrane strips were washed extensively for 60 min at RT with PBS/0.1% Tween-20. Chemiluminescence was detected using the enhanced chemiluminescence (ECL) western blotting reagent (GE Healthcare BioSciences, NSW Australia) and exposed to Hyperfilm (GE Healthcare BioSciences, NSW, Australia) and developed using an Xomat (All-Pro-Imaging). […]

[9] = target: the molecule itself; experiment: BS3 cross-linking in solution, SDS-PAGE and immunoblot; NaD2 was also efficiently multimerised by PA and not by PIP2
Protocol: FIG. 4B is an immunoblot depicting the lipid-mediated oligomerisation of the class II defensins NaD1 and TPP3, and the class I defensin NaD2. Each of the defensins at 250 ng/ml were incubated with 0.5 mM PIP2 or PA at room temperature for 30 minutes and samples then treated with the cross-linker bis[sulfosuccinimidyl] suberate (BS³) at 12.5 mM for a further 30 minutes, Samples were reduced and denatured, separated by SDS-PAGE, and examined by immunoblotting with an anti-NaD1 (NaD1 and TPP3) or anti-NaD2 (NaD2) antibody. Molecular weight markers are indicated.

BODIPY-NaD1: BODIPY-labelled NaD1 (RECKTESNTFPGICITKPPCRKACISEKFTDGHCSKILRRCLCTKPC; cysteine pairing not given here; also: BODIPY label (position not given here); UniProt Q8GTM0 26-72, looked up)
binding to U937 cells ([1]; 7AAD, flow cytometry): bound to both viable (7AAD negative) and permeabilised (7AAD positive) U937 cells | membrane permeabilisation of U937 (7AAD) ([1]; compared with unlabelled NaD1): comparable level to unlabelled NaD1 | subcellular localisation on permeabilised tumor cells [2]: accumulation of BODIPY-NaD1 at the membrane bleb(s), cytoplasm, nucleolus and possibly at certain cytoplasmic organelles

K36E: NaD1 mutant, loop 5 residue K36 replaced with glutamic acid (RECKTESNTFPGICITKPPCRKACISEKFTDGHCSEILRRCLCTKPC; UniProt Q8GTM0 26-72, looked up, variant K36E)
permeabilisation of U937 cells (cells stained positively for PI) ([3]; 5 μM of each defensin): greatly reduced ability to permeabilise U937 cells

R40E: NaD1 mutant, loop 5 residue R40 replaced with glutamic acid (RECKTESNTFPGICITKPPCRKACISEKFTDGHCSKILRECLCTKPC; UniProt Q8GTM0 26-72, looked up, variant R40E)
permeabilisation of U937 cells (cells stained positively for PI) ([3]; 5 μM of each defensin): greatly reduced ability to permeabilise U937 cells

RTCESQSHRFKGPCARDSNCATVCLTEGFSGGDCRGFRRRCFCTRPC (listed as Nicotiana alata) [NaD2]
multimerisation (oligomer formation) mediated by PIP2 [4]: not PIP2 | multimerisation (oligomer formation) mediated by PA [5]: forms oligomers with PA; also recorded: efficiently multimerised by PA | lipid binding preference / ligand [6]: preferentially binds PA over PIP2; also recorded: does not bind PIP2 | tumour cell killing [7]: does not kill tumour cells

rNaD1: NaD1 purified from P. pastoris (recombinant NaD1) (RECKTESNTFPGICITKPPCRKACISEKFTDGHCSKILRRCLCTKPC; recombinant, Pichia pastoris; UniProt Q8GTM0 26-72, looked up)
permeabilisation of U937 cells (cells stained positively for PI) ([3]; 10 μM of each defensin): permeabilised U937 cells | lipid binding profile (lipid bound most strongly / preferred) [8]: bound most strongly to PIP2

RTCESQSHRFKGPCARDSNCATVCLTEGFSGGDCRGFRRRCFCTRPC (other) [NaD2 (Class I plant defensin)]
binding result [9]: binds
